Test results: the supplement of paper PMC10307832

What was measured:
Assay in all cases: relative viability (nuclei count vs DMSO), 5 days (fraction); higher = more cells survive
[1] = compound: C[C@H]([C@@H](C(=O)N)NC(=O)[C@@H]1CSSC[C@@H](C(=O)N[C@H](C(=O)N[C@@H](C(=O)N[C@H](C(=O)N1)CCCCN)CC2=CNC3=CC=CC=C32)CC4=CC=C(C=C4)O)NC(=O)[C@@H](CC5=CC=CC=C5)N)O [CAP-232] + CC(C)C[C@H](NC(=O)[C@H](Cc1ccccc1)NC(=O)c1cnccn1)B(O)O [Bortezomib] (partner 0.002 µM)
Outline: (§1)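 Relative viability is defined as nuclei in treated wells over nuclei in vehicle wells. Duplicate plates were run and medians reported. Lung cancer cell lines in 1536-well plates were dosed by pin tool one day after seeding, with one drug or with a fixed anchor-drug dose plus five library-drug doses (not always all listed) in √10 steps, and nuclei were counted after 5 days.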

[2] = compound: C[C@H]([C@@H](C(=O)N)NC(=O)[C@@H]1CSSC[C@@H](C(=O)N[C@H](C(=O)N[C@@H](C(=O)N[C@H](C(=O)N1)CCCCN)CC2=CNC3=CC=CC=C32)CC4=CC=C(C=C4)O)NC(=O)[C@@H](CC5=CC=CC=C5)N)O [CAP-232] + CS(=O)(=O)N1CCN(Cc2cc3nc(-c4cccc5[nH]ncc45)nc(N4CCOCC4)c3s2)CC1 [Pictilisib] (partner 1 µM)
Outline: as §1

[3] = compound: C[C@H]([C@@H](C(=O)N)NC(=O)[C@@H]1CSSC[C@@H](C(=O)N[C@H](C(=O)N[C@@H](C(=O)N[C@H](C(=O)N1)CCCCN)CC2=CNC3=CC=CC=C32)CC4=CC=C(C=C4)O)NC(=O)[C@@H](CC5=CC=CC=C5)N)O [CAP-232] + C[C@@H](Oc1cc(-c2cnn(C3CCNCC3)c2)cnc1N)c1c(Cl)ccc(F)c1Cl [Crizotinib] (partner 1 µM)
Outline: as §1

[4] = compound: C[C@H]([C@@H](C(=O)N)NC(=O)[C@@H]1CSSC[C@@H](C(=O)N[C@H](C(=O)N[C@@H](C(=O)N[C@H](C(=O)N1)CCCCN)CC2=CNC3=CC=CC=C32)CC4=CC=C(C=C4)O)NC(=O)[C@@H](CC5=CC=CC=C5)N)O [CAP-232] + C[C@]1(O)C[C@@H](c2nc(-c3ccc4ccc(-c5ccccc5)nc4c3)c3c(N)nccn32)C1 [Linsitinib] (partner 1 µM)
Outline: as §1

[5] = compound: C[C@H]([C@@H](C(=O)N)NC(=O)[C@@H]1CSSC[C@@H](C(=O)N[C@H](C(=O)N[C@@H](C(=O)N[C@H](C(=O)N1)CCCCN)CC2=CNC3=CC=CC=C32)CC4=CC=C(C=C4)O)NC(=O)[C@@H](CC5=CC=CC=C5)N)O [CAP-232] + Cc1nc(NC(=O)N2CCC[C@H]2C(N)=O)sc1-c1ccnc(C(C)(C)C(F)(F)F)c1 [Alpelisib] (partner 2 µM)
Outline: as §1

## 201T
[1]; first compound 0.4 µM
  relative viability: 1.17
[1]; first compound 1.265 µM
  relative viability: 1.04
[1]; first compound 4 µM
  relative viability: 1.05
[1]; first compound 12.65 µM
  relative viability: 1.1
[2]; first compound 0.4 µM
  relative viability: 0.765
[2]; first compound 1.265 µM
  relative viability: 0.657
[2]; first compound 4 µM
  relative viability: 0.678
[2]; first compound 12.65 µM
  relative viability: 0.713
[3]; first compound 0.4 µM
  relative viability: 1.13
[3]; first compound 1.265 µM
  relative viability: 1.02
[3]; first compound 4 µM
  relative viability: 1.04
[3]; first compound 12.65 µM
  relative viability: 1.04
[4]; first compound 0.4 µM
  relative viability: 1.05
[4]; first compound 1.265 µM
  relative viability: 0.974
[4]; first compound 4 µM
  relative viability: 0.978
[4]; first compound 12.65 µM
  relative viability: 0.948
[5]; first compound 0.4 µM
  relative viability: 1.05
[5]; first compound 1.265 µM
  relative viability: 0.975
[5]; first compound 4 µM
  relative viability: 0.992
[5]; first compound 12.65 µM
  relative viability: 1.04

## A549
[2]; first compound 0.4 µM
  relative viability: 0.591
[2]; first compound 1.265 µM
  relative viability: 0.472
[2]; first compound 4 µM
  relative viability: 0.563
[2]; first compound 12.65 µM
  relative viability: 0.203
[3]; first compound 0.4 µM
  relative viability: 0.86
[3]; first compound 1.265 µM
  relative viability: 0.734
[3]; first compound 4 µM
  relative viability: 0.871
[3]; first compound 12.65 µM
  relative viability: 0.251
[4]; first compound 0.4 µM
  relative viability: 0.621
[4]; first compound 1.265 µM
  relative viability: 0.59
[4]; first compound 4 µM
  relative viability: 0.583
[4]; first compound 12.65 µM
  relative viability: 0.531
[5]; first compound 0.4 µM
  relative viability: 0.659
[5]; first compound 1.265 µM
  relative viability: 0.653
[5]; first compound 4 µM
  relative viability: 0.734
[5]; first compound 12.65 µM
  relative viability: 0.348

## A-427
[1]; first compound 0.4 µM
  relative viability: 1.21
[1]; first compound 1.265 µM
  relative viability: 0.972
[1]; first compound 4 µM
  relative viability: 0.993
[1]; first compound 12.65 µM
  relative viability: 0.964
[2]; first compound 0.4 µM
  relative viability: 0.508
[2]; first compound 1.265 µM
  relative viability: 0.654
[2]; first compound 4 µM
  relative viability: 0.842
[2]; first compound 12.65 µM
  relative viability: 0.853
[3]; first compound 0.4 µM
  relative viability: 0.881
[3]; first compound 1.265 µM
  relative viability: 0.913
[3]; first compound 4 µM
  relative viability: 0.908
[3]; first compound 12.65 µM
  relative viability: 0.93
[4]; first compound 0.4 µM
  relative viability: 1.14
[4]; first compound 1.265 µM
  relative viability: 1.09
[4]; first compound 4 µM
  relative viability: 1.15
[4]; first compound 12.65 µM
  relative viability: 1.12
[5]; first compound 0.4 µM
  relative viability: 1.08
[5]; first compound 1.265 µM
  relative viability: 1.04
[5]; first compound 4 µM
  relative viability: 1.06
[5]; first compound 12.65 µM
  relative viability: 1.08

## ABC-1
[1]; first compound 0.4 µM
  relative viability: 0.296
[1]; first compound 1.265 µM
  relative viability: 0.306
[1]; first compound 4 µM
  relative viability: 0.222
[1]; first compound 12.65 µM
  relative viability: 0.264
[2]; first compound 0.4 µM
  relative viability: 0.616
[2]; first compound 1.265 µM
  relative viability: 0.878
[2]; first compound 4 µM
  relative viability: 0.745
[2]; first compound 12.65 µM
  relative viability: 0.411
[3]; first compound 0.4 µM
  relative viability: 1.01
[3]; first compound 1.265 µM
  relative viability: 1.17
[3]; first compound 4 µM
  relative viability: 1.08
[3]; first compound 12.65 µM
  relative viability: 0.903
[4]; first compound 0.4 µM
  relative viability: 1.07
[4]; first compound 1.265 µM
  relative viability: 0.781
[4]; first compound 4 µM
  relative viability: 0.726
[4]; first compound 12.65 µM
  relative viability: 0.427
[5]; first compound 0.4 µM
  relative viability: 1.05
[5]; first compound 1.265 µM
  relative viability: 1.15
[5]; first compound 4 µM
  relative viability: 1.24
[5]; first compound 12.65 µM
  relative viability: 0.504

## BEN
[1]; first compound 0.4 µM
  relative viability: 0.819
[1]; first compound 1.265 µM
  relative viability: 0.667
[1]; first compound 4 µM
  relative viability: 0.959
[1]; first compound 12.65 µM
  relative viability: 0.745
[2]; first compound 0.4 µM
  relative viability: 0.569
[2]; first compound 1.265 µM
  relative viability: 0.55
[2]; first compound 4 µM
  relative viability: 0.601
[2]; first compound 12.65 µM
  relative viability: 0.498
[3]; first compound 0.4 µM
  relative viability: 0.859
[3]; first compound 1.265 µM
  relative viability: 0.98
[3]; first compound 4 µM
  relative viability: 0.82
[3]; first compound 12.65 µM
  relative viability: 0.772
[4]; first compound 0.4 µM
  relative viability: 0.952
[4]; first compound 1.265 µM
  relative viability: 0.944
[4]; first compound 4 µM
  relative viability: 0.818
[4]; first compound 12.65 µM
  relative viability: 0.896
[5]; first compound 0.4 µM
  relative viability: 1.03
[5]; first compound 1.265 µM
  relative viability: 1.01
[5]; first compound 4 µM
  relative viability: 1.06
[5]; first compound 12.65 µM
  relative viability: 0.858

## CAL-12T
[1]; first compound 0.4 µM
  relative viability: 1.21
[1]; first compound 1.265 µM
  relative viability: 0.939
[1]; first compound 4 µM
  relative viability: 0.91
[1]; first compound 12.65 µM
  relative viability: 0.477
[2]; first compound 0.4 µM
  relative viability: 0.383
[2]; first compound 1.265 µM
  relative viability: 0.381
[2]; first compound 4 µM
  relative viability: 0.435
[2]; first compound 12.65 µM
  relative viability: 0.322
[3]; first compound 0.4 µM
  relative viability: 0.531
[3]; first compound 1.265 µM
  relative viability: 0.703
[3]; first compound 4 µM
  relative viability: 0.657
[3]; first compound 12.65 µM
  relative viability: 0.739
[4]; first compound 0.4 µM
  relative viability: 0.812
[4]; first compound 1.265 µM
  relative viability: 0.784
[4]; first compound 4 µM
  relative viability: 0.892
[4]; first compound 12.65 µM
  relative viability: 0.966
[5]; first compound 0.4 µM
  relative viability: 1.11
[5]; first compound 1.265 µM
  relative viability: 1.24
[5]; first compound 4 µM
  relative viability: 1.42
[5]; first compound 12.65 µM
  relative viability: 0.726

## COR-L23
[1]; first compound 0.4 µM
  relative viability: 0.959
[1]; first compound 1.265 µM
  relative viability: 1.04
[1]; first compound 4 µM
  relative viability: 1.15
[1]; first compound 12.65 µM
  relative viability: 0.732
[2]; first compound 0.4 µM
  relative viability: 0.653
[2]; first compound 1.265 µM
  relative viability: 0.734
[2]; first compound 4 µM
  relative viability: 0.784
[2]; first compound 12.65 µM
  relative viability: 0.579
[3]; first compound 0.4 µM
  relative viability: 0.665
[3]; first compound 1.265 µM
  relative viability: 0.793
[3]; first compound 4 µM
  relative viability: 0.72
[3]; first compound 12.65 µM
  relative viability: 0.619
[4]; first compound 0.4 µM
  relative viability: 0.92
[4]; first compound 1.265 µM
  relative viability: 1
[4]; first compound 4 µM
  relative viability: 0.971
[4]; first compound 12.65 µM
  relative viability: 0.676
[5]; first compound 0.4 µM
  relative viability: 0.725
[5]; first compound 1.265 µM
  relative viability: 0.754
[5]; first compound 4 µM
  relative viability: 0.701
[5]; first compound 12.65 µM
  relative viability: 0.616
